{"source": "patent US4127525A", "about": "“Novel tridecapeptides, intermediates therefor, and compositions and methods employing said tridecapeptides” (priority 1977, dated 1978)", "origin": "cited, not measured here", "key": {"[1]": {"tested_on": "partially purified brain opiate receptor sites", "conditions": "natural peptide"}, "rat": {"tested_on": "rat", "conditions": "injected directly into the brain of the rat"}}}
{"substance": "H-Tyr-Gly-Gly-Phe-Met-OH [methionine enkephalin]", "values": [{"measurement": "binding to partially purified brain opiate receptor sites", "setting": "[1]", "result": "binds stereo-specifically"}, {"measurement": "analgesic activity", "setting": "rat", "result": "only weak analgesic agent of short duration"}]}
